Results published in patent US20230322788A1, “IMIDAZOTRIAZINE AND PYRROLOPYRIMIDINE DERIVATIVES AS KRAS G12C INHIBITORS” (BeiGene, Ltd., priority 2020, published 2023).

Biological target: KRAS (aa 1-169) G12C, C51S, C80L, C118S (Homo sapiens (Human), UniProt P01116, C118S/C51S/C80L/G12C)
Assay: KRAS G12C SOS1-mediated nucleotide exchange / cRaf RBD binding FRET assay (Biochemical Functional Assay)
Conditions: GDP-loaded KRAS G12C pre-incubated with compound at 24° C. for 3 hrs; SOS1, GTPγS, GST-cRaf RBD; inhibition of nucleotide exchange
Method: The KRAS ([…]) G12C, C51S, C80L, C118S with a His-tag was expressed, purified and loaded with GDP in house. All protein and substrate solutions were prepared in assay buffer containing 25 mM HEPES pH7.5, 10 mM MgCl2, and 0.01% Triton X-100. Purified GDP-loaded KRAS (aa 1-169) G12C, C51S, C80L, C118S protein was pre-incubated with a serially diluted compound at 24° C. for 3 hrs. Purified SOS1 (aa 564-1049) protein, GTPYS (Sigma) and GST-cRaf RBD (aa 1-149) were then added to each well and incubated at 24° C. for additional 3 hrs. […] Following the incubation, Mab Anti-6HIS-Tb cryptate (Cisbio) and Mab Anti GST-XL665 (Cisbio) were added and further incubated at 24° C. for 3 hrs. The binding interaction between active GTPγS KRAS G12C and GST-cRaf RBD brings the Tb and XL665 into close proximity enabling an increased FRET signal (Ex337 nm, Em665 nm/620 nm). The inhibition percentage of nucleotide exchange reaction in presence of increasing concentrations of compounds was calculated based on the ratio of fluorescence at 665 nm to that at 620 nm detected on a BMG PHERAstar FSX instrument. The IC50 value of each compound was calculated from fitting the data to the four-parameter logistic model by Dotmatics.

Chain of KRAS (aa 1-169) G12C, C51S, C80L, C118S (P01116 other isoform, or with tags, fused parts or gaps G12C/C51S/C80L/C118S): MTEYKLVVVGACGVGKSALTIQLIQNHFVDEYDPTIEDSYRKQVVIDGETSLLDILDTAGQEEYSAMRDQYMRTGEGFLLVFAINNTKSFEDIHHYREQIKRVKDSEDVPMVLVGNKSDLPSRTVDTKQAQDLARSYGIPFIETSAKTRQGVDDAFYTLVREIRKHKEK

Compound	IC50
C=CC(=O)N1CCN(c2nc(OC[C@@H]3CCCN3C)nn3c(Cc4c(O)cccc4F)cnc23)C[C@@H]1CC#N [Compound A20, 2-((S)-1-acryloyl-4-(7-(2-fluoro-6-hydroxybenzyl)-2-(((S)-1-methylpyrrolidin-2-yl)methoxy)imidazo[2,1-f][1,2,4]triazin-4-yl)piperazin-2-yl)acetonitrile]	19.1 nM
C=CC(=O)N1CCN(c2nc(OC[C@@H]3CCCN3C)nc3c(Cc4cc(O)cc5ccccc45)cn(C)c23)CC1 [Compound B4, (S)-1-(4-(7-((3-hydroxynaphthalen-1-yl)methyl)-5-methyl-2-((1-methylpyrrolidin-2-yl)methoxy)-5H-pyrrolo[3,2-d]pyrimidin-4-yl)piperazin-1-yl)prop-2-en-1-one]	329 nM
C=CC(=O)N1CCN(c2nc(OC[C@@H]3CCCN3C)nn3c(C(=O)c4cccc5ccccc45)cnc23)C[C@@H]1CC#N [Compound A23, 2-((S)-4-(7-(1-naphthoyl)-2-(((S)-1-methylpyrrolidin-2-yl)methoxy)imidazo[2,1-f][1,2,4]triazin-4-yl)-1-acryloylpiperazin-2-yl)acetonitrile]	489 nM
C=C(F)C(=O)N1CCN(c2nc(OC[C@@H]3CCCN3C)nc3c(Cc4c(Cl)c(F)cc5[nH]ncc45)c[nH]c23)C[C@@H]1CC#N [Compound B6, 2-((S)-4-(7-((5-chloro-6-fluoro-1H-indazol-4-yl)methyl)-2-(((S)-1-methylpyrrolidin-2-yl)methoxy)-5H-pyrrolo[3,2-d]pyrimidin-4-yl)-1-(2-fluoroacryloyl)piperazin-2-yl)acetonitrile]	639 nM
C=CC(=O)N1CCN(c2nc(OC[C@@H]3CCCN3C)nn3c(Cc4cccc5ccccc45)cnc23)[C@@H](C)C1 [Compound A17, 1-((S)-3-methyl-4-(2-(((S)-1-methylpyrrolidin-2-yl)methoxy)-7-(naphthalen-1-ylmethyl)imidazo[2,1-f][1,2,4]triazin-4-yl)piperazin-1-yl)prop-2-en-1-one]	2930 nM
C=CC(=O)N1CCN(c2nc(OC[C@@H]3CC(F)(F)CN3C)nn3c(Cc4cccc5ccccc45)cnc23)C[C@@H]1CC#N [Compound A14, 2-((S)-1-acryloyl-4-(2-(((S)-4,4-difluoro-1-methylpyrrolidin-2-yl)methoxy)-7-(naphthalen-1-ylmethyl)imidazo[2,1-f][1,2,4]triazin-4-yl)piperazin-2-yl)acetonitrile]	506 nM
C=CC(=O)N1CCN(c2nc(OC[C@@H]3CCCN3C)nn3c(Cc4cc(O)cc5ccccc45)cnc23)CC1 [Compound A2, (S)-1-(4-(7-((3-hydroxynaphthalen-1-yl)methyl)-2-((1-methylpyrrolidin-2-yl)methoxy)imidazo[2,1-f][1,2,4]triazin-4-yl)piperazin-1-yl)prop-2-en-1-one]	427 nM
